ChEMBL document CHEMBL1201862, “PubChem BioAssay data set” (2004)
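Method: 48-hour compound exposure of cells in 96-well plates, five concentrations, linear interpolation of endpoints. At the GI50, growth is halved.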 Activity calls are given as the source filed them. Rule as the data show it: active = GI50 up to about 1.1 µM and inactive = higher.

Assays:
Test in all cases: NCI anticancer screen, dose series, 48 h
[1] = tested on: RXF 393
[2] = tested on: MCF7
[3] = tested on: SK-MEL-5
[4] = tested on: CCRF-CEM
[5] = tested on: K562
[6] = tested on: HOP-62
[7] = tested on: NCI/ADR-RES
[8] = tested on: KM12
[9] = tested on: OVCAR-4
[10] = tested on: SK-MEL-2
[11] = tested on: HCT-116
[12] = tested on: A498
[13] = tested on: SW-620
[14] = tested on: NCI-H23
[15] = tested on: SN12C
[16] = tested on: ACHN

Measured: GI50

CCCn1cc2c3c(cccc31)C1C=C(C)CN(C)C1C2 (stereo unspecified)
inactive: [1] 18.5 µM | [2] 9.71 µM | [3] 11.3 µM | [4] 3.67 µM | [5] 2.56 µM | [6] 31.7 µM | [7] 20.8 µM | [8] 24.2 µM | [9] 10.1 µM | [10] 29.1 µM | [11] 10.4 µM | [12] 13.7 µM | [13] 23.4 µM | [14] 25.5 µM | [15] 27.5 µM

COC(=O)/C=C/C(=O)C1C(C(=O)OC)C2(C(=O)OC)CCC1(C(=O)OC)N2 (stereo unspecified)
inactive: [1] > 100 µM | [3] > 100 µM | [5] > 100 µM | [6] > 100 µM | [8] > 100 µM | [9] > 100 µM | [10] > 100 µM | [11] > 100 µM | [14] > 100 µM

C/C(=N/NS(=O)(=O)c1ccc([N+](=O)[O-])cc1)c1cccc[n+]1[O-]
inactive: [3] > 100 µM | [4] > 100 µM | [5] > 100 µM | [6] > 100 µM | [8] > 100 µM | [9] > 100 µM | [11] > 100 µM | [12] > 100 µM | [13] > 100 µM | [14] > 100 µM | [15] > 100 µM | [16] > 100 µM

COC(=O)/C([Se]c1c(C)cc(C)cc1C)=C(\[Se]c1c(C)cc(C)cc1C)C(=O)OC
inactive: [1] > 100 µM | [3] > 100 µM | [4] > 100 µM | [5] > 100 µM | [6] > 100 µM | [8] > 100 µM | [9] > 100 µM | [10] > 100 µM | [11] > 100 µM | [12] > 100 µM | [13] > 100 µM | [14] > 100 µM | [15] > 100 µM | [16] > 100 µM

C=C1C(=O)O[C@@H]2[C@H]3O[C@]3(C)CCC=C(C)CC[C@@H]12
inactive: [1] 12.2 µM | [2] 16.4 µM | [3] 17.5 µM | [4] 8.38 µM | [5] 21.8 µM | [6] 49.1 µM | [7] 15 µM | [8] 16.8 µM | [9] 21.6 µM | [10] 16.2 µM | [11] 10.3 µM | [12] 7.05 µM | [13] 14.8 µM | [14] 20.2 µM | [15] 22.9 µM

C=C(c1ccccc1)C1(O)CCCCC1N (stereo unspecified)
inactive: [1] > 100 µM | [3] > 100 µM | [4] 33.9 µM | [5] > 100 µM | [6] > 100 µM | [8] > 100 µM | [9] > 100 µM | [10] > 100 µM | [11] > 100 µM | [12] > 100 µM | [13] > 100 µM | [14] > 100 µM | [15] > 100 µM | [16] > 100 µM

O=C(NNC(=O)c1nsc2ccccc12)c1ccc(Cl)cc1
inactive: [1] 14 µM | [3] 23.8 µM | [4] 19 µM | [5] 19.1 µM | [6] 18.3 µM | [8] 27.2 µM | [9] > 10 µM | [10] 22.3 µM | [11] 17.5 µM | [13] 35.4 µM | [14] 21.9 µM | [15] 17.6 µM | [16] > 100 µM

CC(C)(C)OC(=O)NC1CCCC1=O (stereo unspecified)
inactive: [1] > 100 µM | [3] > 100 µM | [4] > 100 µM | [5] > 100 µM | [6] > 100 µM | [8] > 100 µM | [9] > 100 µM | [10] > 100 µM | [11] > 100 µM | [12] 8.3 µM | [13] > 100 µM | [14] > 100 µM | [15] > 100 µM | [16] > 100 µM

Cc1c(N(Cc2ccccc2)Cc2ccccc2)nc(S(C)(=O)=O)nc1S(C)(=O)=O
inactive: [1] 1.57 µM | [3] 12 µM | [4] 2.2 µM | [5] 2.08 µM | [6] 14.7 µM | [10] 11.9 µM | [11] 1.66 µM | [13] 1.93 µM | [14] 1.72 µM | [15] 2.08 µM | [16] 4.68 µM

CCCCNC1=C2C(=O)NN=C2CO1
inactive: [1] > 100 µM | [3] > 100 µM | [4] > 100 µM | [5] > 100 µM | [6] > 100 µM | [8] > 100 µM | [9] > 100 µM | [10] > 100 µM | [11] > 100 µM | [12] > 100 µM | [13] > 100 µM | [14] > 100 µM | [15] > 100 µM | [16] > 100 µM
